This note sets out measurements from ChEMBL document CHEMBL1140113, “Structural requirements for drug inhibition of the liver specific human organic cation transport protein 1” (J Med Chem, 2008).

Data set [1] concerns the target T1, OCT1 (SLC22A1) (Homo sapiens, UniProt O15245).
T1 sequence (O15245 whole entry): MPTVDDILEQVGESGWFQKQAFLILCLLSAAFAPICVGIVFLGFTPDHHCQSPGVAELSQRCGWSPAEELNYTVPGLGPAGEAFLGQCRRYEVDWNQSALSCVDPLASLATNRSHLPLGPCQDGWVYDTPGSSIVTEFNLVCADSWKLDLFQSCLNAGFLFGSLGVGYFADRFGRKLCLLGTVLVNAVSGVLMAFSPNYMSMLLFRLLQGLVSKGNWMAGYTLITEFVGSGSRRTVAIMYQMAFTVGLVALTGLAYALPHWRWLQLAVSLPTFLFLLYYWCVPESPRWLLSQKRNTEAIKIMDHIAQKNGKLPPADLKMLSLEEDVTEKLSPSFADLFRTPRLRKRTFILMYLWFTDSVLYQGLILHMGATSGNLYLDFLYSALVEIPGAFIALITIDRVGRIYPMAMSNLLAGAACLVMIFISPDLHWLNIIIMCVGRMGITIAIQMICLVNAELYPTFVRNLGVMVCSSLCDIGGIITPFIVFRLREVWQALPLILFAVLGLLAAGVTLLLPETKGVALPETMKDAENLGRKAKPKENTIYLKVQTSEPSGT
Description: in vitro.

The target of data set [2] is T2, Solute carrier family 22 member 1 (Homo sapiens, UniProt O15245).
T2 sequence (O15245 whole entry): T1 sequence (O15245 whole entry)
Type of data set: cell-based, HEK293.

The target in data set [3] is T1, OCT1 (SLC22A1). The data set can be described thus: Inhibition of 4-(4-(dimethylamino)styryl)-N-methylpyridinium uptake at human OCT1 expressed in HEK293 cells at 10 uM by confocal microscopy. Type of data set: cell-based. The settings on record: HEK293 cells that express human OCT1, probe 4-(4-(dimethylamino)styryl)-N-methylpyridinium.
Substrate in data set [4]: CC[N+](CC)(CC)CC
The data set can be described thus: not read.

[5] abbreviates: HEK293 cells that express human OCT1, probe 4-(4-(dimethylamino)styryl)-N-methylpyridinium.

For `C[C@]12CC[C@H]3[C@@H](CCC4=CC(=O)CC[C@@H]43)[C@@H]1CC[C@@H]2O` [NANDROLONE], in data set [1] (hek293), the inhibition at 100 µM was determined as 79.3%. Besides, in data set [2], the IC50 came to 35.1 µM.

For the molecule `COc1ccc([C@@H]2Sc3ccccc3N(CCN(C)C)C(=O)[C@@H]2OC(C)=O)cc1` [DILTIAZEM], in data set [1] (setting [5]), the inhibition at 100 µM was found to be 65.5%. The molecule further showed an IC50 in data set [2] of 12.4 µM.

With `COc1cccc(C2(O)CCCCC2CN(C)C)c1` (configuration not stated) [TRAMADOL], the inhibition at 100 µM in data set [1] (setting [5]) was found to be 60.2%. The IC50 in data set [2] came to 52.5 µM.

With `CN(C)C(=O)C(CCN1CCC(O)(c2ccc(Cl)cc2)CC1)(c1ccccc1)c1ccccc1` [LOPERAMIDE], the inhibition at 100 µM in data set [1] (hek293) stood at 73.4%. The molecule also showed an IC50 in data set [2] of 23.7 µM.

Take `CCN(CC)CCNC(=O)c1cc(Cl)c(N)cc1OC` [METOCLOPRAMIDE]: in data set [1] (setting [5]), the inhibition at 100 µM came out at 52.3%. For the same molecule, the IC50 in data set [2] is 94.8 µM.

Take `CC(CN(C)C)CN1c2ccccc2CCc2ccccc21` (configuration not stated) [TRIMIPRAMINE]: in data set [1] (setting [5]), the inhibition at 100 µM is 77.2%. In addition, half-maximal inhibition in data set [2] (IC50) required 27.7 µM.

With `C=CCOc1ccccc1OCC(O)CNC(C)C` (configuration not stated) [OXPRENOLOL], in data set [1] (hek293), the inhibition at 100 µM was 61.5%. In data set [2], this molecule yielded an IC50 of 28.6 µM.

Regarding `COc1cc2nc(N3CCN(C(=O)c4ccco4)CC3)nc(N)c2cc1OC` [PRAZOSIN], the inhibition at 100 µM in data set [1] (hek293) stood at 55.6%. Also, the inhibition at 10 µM in data set [3] worked out at 55.6%. Besides, inhibition in data set [2] was half-maximal at 9.9 µM (IC50).

`CN1CCC[C@@H]1CCO[C@](C)(c1ccccc1)c1ccc(Cl)cc1` [CLEMASTINE]: the inhibition at 100 µM in data set [1] (setting [5]) was determined as 78.8%. Moreover, 4.9 µM corresponded to half-maximal inhibition in data set [2] (IC50).

`CC12CC3CC(C)(C1)CC(N)(C3)C2` [MEMANTINE]: the inhibition at 100 µM in data set [1] (setting [5]) came to 58.6%. The IC50 in data set [2] was determined as 27.2 µM.

Regarding `CC(C)NCC(O)COc1cccc2ccccc12` (configuration not stated) [PROPRANOLOL], in data set [1] (setting [5]), the inhibition at 100 µM is 55.4%. This molecule also came in with an IC50 in data set [2] of 63.2 µM.

As for `CC(CN1c2ccccc2Sc2ccccc21)N(C)C` (configuration not stated) [PROMETHAZINE], the inhibition at 100 µM in data set [1] (setting [5]) was 71.1%. In data set [2], this molecule displayed an IC50 of 35.1 µM.

As to `Cc1nccn1CC1CCc2c(c3ccccc3n2C)C1=O` (configuration not stated) [ONDANSETRON], in data set [1] (hek293), the inhibition at 100 µM came out at 63.8%. This molecule had an IC50 in data set [2] of 20.4 µM.

In the case of `CN1CCc2cccc3c2[C@H]1Cc1ccc(O)c(O)c1-3` [APOMORPHINE], the inhibition at 100 µM in data set [1] (setting [5]) is 69%. Further, the IC50 in data set [2] was determined as 20.8 µM.

As to `CCCNCC(O)COc1ccccc1C(=O)CCc1ccccc1` (configuration not stated) [PROPAFENONE], the inhibition at 100 µM in data set [1] (setting [5]) is 83.8%. Moreover, it took 11.1 µM to reach half-maximal inhibition in data set [2] (IC50).

Take `CN(C)CCC=C1c2ccccc2CCc2ccccc21` [AMITRIPTYLINE]: the inhibition at 100 µM in data set [1] (setting [5]) is 78.5%. For the same molecule, half-maximal inhibition in data set [2] (IC50) required 16.9 µM.

As to `CN(C)CCCN1c2ccccc2Sc2ccccc21` [PROMAZINE], the inhibition at 100 µM in data set [1] (setting [5]) came out at 79.2%. In data set [2], this molecule gave a half-maximal inhibitory concentration (IC50) of 17.2 µM.

Turning to `CN1CCN(CCCN2c3ccccc3Sc3ccc(Cl)cc32)CC1` [PROCHLORPERAZINE], the inhibition at 100 µM in data set [1] (setting [5]) is 66.5%. The molecule further came in with an IC50 in data set [2] of 49.6 µM.

With `CN(C)CC/C=C1/c2ccccc2Sc2ccc(Cl)cc21` [CHLORPROTHIXENE], in data set [1] (setting [5]), the inhibition at 100 µM came out at 65.4%. Also, in data set [2], half-maximal inhibition (IC50) was put at 77.8 µM.

For the molecule `N=C(N)NC(=O)c1nc(Cl)c(N)nc1N` [AMILORIDE], the inhibition at 100 µM in data set [1] (setting [5]) was 68.7%. Besides, the midpoint of inhibition in data set [2], the IC50, lay at 57 µM.

For `CN(C)CCCN1c2ccccc2CCc2ccc(Cl)cc21` [CLOMIPRAMINE], in data set [1] (setting [5]), the inhibition at 100 µM turned out to be 85.3%. Moreover, in data set [2], half-maximal inhibition (IC50) required 19.3 µM.

`Clc1cccc(Cl)c1N=C1NCCN1` [CLONIDINE]: the inhibition at 100 µM in data set [1] (hek293) turned out to be 65.4%. Also, in data set [2], the IC50 turned out to be 22.6 µM.

For the molecule `CC(COc1ccccc1)N(CCCl)Cc1ccccc1` (configuration not stated) [PHENOXYBENZAMINE], the inhibition at 100 µM in data set [1] (setting [5]) was 56.7%. This molecule showed an IC50 in data set [2] of 15.1 µM.

With `CN(C)CCCN1c2ccccc2Sc2ccc(Cl)cc21` [CHLORPROMAZINE], in data set [1] (setting [5]), the inhibition at 100 µM is 85.1%. In data set [2], this molecule returned an IC50 of 27 µM.

Take `CNCCCN1c2ccccc2CCc2ccccc21` [DESIPRAMINE]: in data set [1] (hek293), the inhibition at 100 µM came out at 84.3%. In data set [2], this molecule registered an IC50 of 56.8 µM.

Turning to `CN(C)CCCN1c2ccccc2CCc2ccccc21` [IMIPRAMINE], the inhibition at 100 µM in data set [1] (hek293) came out at 82.8%. This molecule also had an IC50 in data set [2] of 17.1 µM.

For the molecule `COc1cc2nc(N3CCN(C(=O)C4CCCO4)CC3)nc(N)c2cc1OC` (configuration not stated) [TERAZOSIN], in data set [1] (setting [5]), the inhibition at 100 µM was 77%. Further, the IC50 in data set [2] was 23.7 µM.

As for `CN1CC[C@]23c4c5ccc(O)c4O[C@H]2[C@@H](O)C=C[C@H]3[C@H]1C5` [MORPHINE], in data set [1] (setting [5]), the inhibition at 100 µM amounted to 67.9%. The same molecule had an IC50 in data set [2] of 28 µM.

Turning to `C[N+]1(C)CCCC(OC(=O)C(O)(c2ccccc2)c2ccccc2)C1` (configuration not stated) [MEPENZOLATE BROMIDE], the inhibition at 100 µM in data set [1] (setting [5]) worked out at 59.5%. Also, the IC50 in data set [2] came out at 64.9 µM.

Consider `COc1cc(NS(C)(=O)=O)ccc1Nc1c2ccccc2nc2ccccc12` [AMSACRINE], for which, in data set [1] (setting [5]), the inhibition at 100 µM turned out to be 68.4%. Moreover, the IC50 in data set [2] came to 5 µM.

Turning to `O=C(CCCN1CCC(O)(c2ccc(Cl)cc2)CC1)c1ccc(F)cc1` [HALOPERIDOL], in data set [1] (setting [5]), the inhibition at 100 µM amounted to 67.1%. The same molecule showed an IC50 in data set [2] of 142 µM.

`COc1ccc(CCNC[C@H](O)c2ccc(O)cc2)cc1OC` [DENOPAMINE]: in data set [1] (hek293), the inhibition at 100 µM was 51.5%. In data set [2], 46.9 µM corresponded to half-maximal inhibition (IC50).

Turning to `OCCN1CCN(CCCN2c3ccccc3Sc3ccc(C(F)(F)F)cc32)CC1` [FLUPHENAZINE], the inhibition at 100 µM in data set [1] (setting [5]) worked out at 61.9%. For the same molecule, the IC50 in data set [2] is 110 µM.

Take `CN(C)CCCC1(c2ccc(F)cc2)OCc2cc(C#N)ccc21` (configuration not stated) [CITALOPRAM]: the inhibition at 100 µM in data set [1] (hek293) was found to be 52%. Inhibition in data set [2] was half-maximal at 18.8 µM (IC50).

In the case of `CCOc1cc(CC(=O)N[C@@H](CC(C)C)c2ccccc2N2CCCCC2)ccc1C(=O)O` [REPAGLINIDE], the inhibition at 100 µM in data set [1] (setting [5]) is 76.4%. In data set [2], this molecule returned an IC50 of 9.2 µM.

For the molecule `CO[C@H]1/C=C/O[C@@]2(C)Oc3c(C)c(O)c4c(O)c(c(/C=N/N5CCN(C)CC5)c(O)c4c3C2=O)NC(=O)/C(C)=C\C=C\[C@H](C)[C@H](O)[C@@H](C)[C@@H](O)[C@@H](C)[C@H](OC(C)=O)[C@@H]1C` [RIFAMPIN], the inhibition at 100 µM in data set [1] (setting [5]) came to 26.2%.

As for `CCCN(CCC)S(=O)(=O)c1ccc(C(=O)O)cc1` [PROBENECID], the inhibition at 100 µM in data set [1] (setting [5]) was -8.9%.

Take `CCN(CC)CCNC(=O)c1ccc(NC(C)=O)cc1` [ACECAINIDE]: the inhibition at 100 µM in data set [1] (setting [5]) came to 13.7%.

With `CC(C)(Cc1c[nH]c2ccccc12)NCC(O)COc1ccccc1C#N` (configuration not stated) [BUCINDOLOL], the inhibition at 100 µM in data set [1] (setting [5]) was determined as 84.6%. In data set [2], this molecule returned a concentration for half-maximal inhibition (IC50) of 27.2 µM.

B1: Solute carrier family 22 member 1 (Homo sapiens) (protein)
chain: T1 sequence (O15245 whole entry)
Regarding B1, the Km in data set [4] was 2.32 µM.

What is called inhibition is the change of the read-out against control, counted positive when it falls. Usually IC50 stands for the midpoint of a concentration-inhibition curve. A lower IC50 goes with greater potency in that assay. By Km is commonly meant the concentration of substrate that gives half-maximal velocity.
